Data published in ChEMBL document CHEMBL4651402, “Screening of ~5500 FDA-approved drugs and clinical candidates for anti-SARS-CoV-2 activity” (2021).
pIC50: −log10 of the molar value.

Test system: SARS-CoV-2
Experiment: microbe, parasite or virus in culture
Settings: Severe acute respiratory syndrome coronavirus 2, Vero C1008, 48 h; for IC50: read-out: pIC50 (converted)

| SMILES | pIC50 | IC50 [µM] |
| --- | --- | --- |
| Cc1ccc(-n2nc(C(C)(C)C)cc2NC(=O)Nc2ccc(OCCN3CCOCC3)c3ccccc23)cc1 [DORAMAPIMOD] | < 4.70 | > 20 |
| CCN[C@H]1C[C@H](C)S(=O)(=O)c2sc(S(N)(=O)=O)cc21 [DORZOLAMIDE] | < 4.70 | > 20 |
| CCN1CC(CCN2CCOCC2)C(c2ccccc2)(c2ccccc2)C1=O (configuration not stated) [DOXAPRAM] | < 4.70 | > 20 |
| COc1cc2nc(N3CCN(C(=O)C4COc5ccccc5O4)CC3)nc(N)c2cc1OC (configuration not stated) [DOXAZOSIN] | < 4.70 | > 20 |
| Nc1ccn([C@H]2C[C@H](O)[C@@H](CO)O2)c(=O)n1 [DOXECITINE] | < 4.70 | > 20 |
| Cn1c(=O)c2c(ncn2CC2OCCO2)n(C)c1=O [DOXOFYLLINE] | < 4.70 | > 20 |
| CN(C)[C@@H](c1cccnc1)C1COCOC1 [DOXPICOMINE] | < 4.70 | > 20 |
| Cc1cn([C@H]2C[C@H](O)[C@@H](CO)O2)c(=O)[nH]c1=O [DOXRIBTIMINE] | < 4.70 | > 20 |
| C[C@H]1c2cccc(O)c2C(=O)C2=C(O)[C@]3(O)C(=O)C(C(N)=O)=C(O)[C@@H](N(C)C)[C@@H]3[C@@H](O)[C@@H]21 [DOXYCYCLINE] | < 4.70 | > 20 |
| CN(C)CCOC(C)(c1ccccc1)c1ccccn1 (configuration not stated) [DOXYLAMINE] | < 4.70 | > 20 |
| CCN(CC)CCOC(=O)C(c1ccccc1)C1CCCCC1 (configuration not stated) [DROFENINE] | < 4.70 | > 20 |
| O=C(CCCN1CC=C(n2c(=O)[nH]c3ccccc32)CC1)c1ccc(F)cc1 [DROPERIDOL] | < 4.70 | > 20 |
| OCC(O)CN1CCN(c2ccccc2)CC1 (configuration not stated) [DROPROPIZINE] | < 4.70 | > 20 |
| CCOc1ccc(/C=C2\NCCc3cc(OCC)c(OCC)cc32)cc1OCC [DROTAVERINE] | < 4.70 | > 20 |
| Cc1cc(Nc2ccc(S(F)(F)(F)(F)F)cc2)n2nc(C(C)(F)F)nc2n1 [DSM-265] | < 4.70 | > 20 |
| CN1CCN(Cc2ccc(Nc3ncc(Cl)c(Nc4ccccc4S(=O)(=O)N(C)C)n3)cc2)CC1 [DUBERMATINIB] | < 4.70 | > 20 |
| OC[C@H]1NC[C@H](O)[C@@H](O)[C@@H]1O [DUVOGLUSTAT] | < 4.70 | > 20 |
| CCCCOc1ccc(C(=O)CCN2CCCCC2)cc1 [DYCLONINE] | < 4.70 | > 20 |
| CC(=O)[C@H]1CC[C@H]2[C@@H]3C=CC4=CC(=O)CC[C@@]4(C)[C@@H]3CC[C@]12C [DYDROGESTERONE] | < 4.70 | > 20 |
| Cn1c(=O)c2c(ncn2CC(O)CO)n(C)c1=O (configuration not stated) [DYPHYLLINE] | < 4.70 | > 20 |
| CCc1occc(=O)c1O [E637] | < 4.70 | > 20 |
| CN(C)CC/C=C1\c2ccccc2COc2ccccc21 [E-DOXEPIN] | < 4.70 | > 20 |
| CC(C)(C)c1ccc(C(=O)CCCN2CCC(OC(c3ccccc3)c3ccccc3)CC2)cc1 [EBASTINE] | < 4.70 | > 20 |
| O=c1c2ccccc2[se]n1-c1ccccc1 [EBSELEN] | < 4.70 | > 20 |
| CNC(=O)c1cccc(NCC(=O)NCCc2ccc(OC)c(OC)c2)c1 [ECABAPIDE] | < 4.70 | > 20 |
| Clc1ccc(COC(Cn2ccnc2)c2ccc(Cl)cc2Cl)cc1 (configuration not stated) [ECONAZOLE] | < 4.70 | > 20 |

| SMILES | pIC50 | IC50 [µM] |
| --- | --- | --- |
| CN1CCc2cc(Cl)c(O)cc2[C@H]2c3ccccc3CC[C@@H]21 [ECOPIPAM] | < 4.70 | > 20 |
| CC1=NN(c2ccccc2)C(=O)C1 [EDARAVONE] | < 4.70 | > 20 |
| C[C@@H]1CN(Cc2ncccn2)C[C@H]1c1nc2c(cnn2C2CCOCC2)c(=O)[nH]1 [EDELINONTRINE] | < 4.70 | > 20 |
| CC1(C)CC=C(c2nc(C3CC(C)(C)OC(C)(C)C3)ccc2NC(=O)c2nc(C#N)c[nH]2)CC1 [EDICOTINIB] | < 4.70 | > 20 |
| CCc1cn([C@H]2C[C@H](O)[C@@H](CO)O2)c(=O)[nH]c1=O [EDOXUDINE] | < 4.00 | > 100 |
| CC[N+](C)(C)c1cccc(O)c1 [EDROPHONIUM] | < 4.70 | > 20 |
| CCC1(C2=NCCN2)Cc2ccccc2O1 (configuration not stated) [EFAROXAN] | < 4.70 | > 20 |
| NCCCC(N)(C(=O)O)C(F)F (configuration not stated) [EFLORNITHINE] | < 4.70 | > 20 |
| CCOC(=O)COc1ccc2c(=O)cc(-c3ccccc3)oc2c1 [EFLOXATE] | < 4.70 | > 20 |
| CSc1ccc(C(=O)/C=C/c2cc(C)c(OC(C)(C)C(=O)O)c(C)c2)cc1 [ELAFIBRANOR] | < 4.70 | > 20 |
| O=C(O)C[C@H](NC(=O)[C@@H]1CCCN(C(=O)CCC2CCNCC2)C1)c1cccnc1 [ELAROFIBAN] | < 4.70 | > 20 |
| O=C(OC(C(F)(F)F)C(F)(F)F)N1CCN(Cc2ccc(C(F)(F)F)cc2N2CCCC2)CC1 [ELCUBRAGISTAT] | < 4.70 | > 20 |
| CN(NC(=O)CC(=O)NN(C)C(=S)c1ccccc1)C(=S)c1ccccc1 [ELESCLOMOL] | < 4.70 | > 20 |
| OC(CN1CCC(Cc2ccc(F)cc2)CC1)c1ccc(Cl)cc1 (configuration not stated) [ELIPRODIL] | < 4.70 | > 20 |
| Cc1c2ccncc2c(C)c2c1[nH]c1ccccc12 [ELLIPTECINE] | < 4.70 | > 20 |
| CCCCC1(CCCC)CN(c2ccccc2)c2cc(SC)c(OCC(=O)N[C@@H](C(=O)NCC(=O)O)c3ccccc3)cc2S(=O)(=O)C1 [ELOBIXIBAT] | < 4.70 | > 20 |
| c1cc2c(c(N3CCNCC3)c1)OCCO2 [ELTOPRAZINE] | < 4.70 | > 20 |
| O=C(Nc1ccc(Cl)c(S(=O)(=O)N2CCNCC2)c1O)Nc1cccc(F)c1Cl [ELUBRIXIN] | < 4.70 | > 20 |
| CCN(CC)CC(OC(=O)c1ccccc1)c1ccccc1 (configuration not stated) [ELUCAINE] | < 4.70 | > 20 |
| Nc1nc(=O)n([C@@H]2C=C[C@H](CO)O2)cc1F [ELVUCITABINE] | < 4.70 | > 20 |
| CCCCCCCCCCCC1=C(O)C(=O)C=C(O)C1=O [EMBELIN] | < 4.70 | > 20 |
| CCOCCn1c(N2CCCN(C)CC2)nc2ccccc21 [EMEDASTINE] | < 4.70 | > 20 |
| CC[C@H]1CN2CCc3cc(OC)c(OC)cc3[C@@H]2C[C@@H]1C[C@H]1NCCc2cc(OC)c(OC)cc21 [EMETINE] | < 4.70 | > 20 |
| CCOCn1c(Cc2ccccc2)c(C(C)C)c(=O)[nH]c1=O [EMIVIRINE] | < 4.70 | > 20 |
| Cc1cc(O)c2c(c1)C(=O)c1cc(O)cc(O)c1C2=O [EMODIN] | < 4.70 | > 20 |
| CCc1nc(C)ccc1O [EMOXYPINE] | < 4.70 | > 20 |

| SMILES | pIC50 | IC50 [µM] |
| --- | --- | --- |
| OC[C@H]1O[C@@H](c2ccc(Cl)c(Cc3ccc(O[C@H]4CCOC4)cc3)c2)[C@H](O)[C@@H](O)[C@@H]1O [EMPAGLIFLOZIN] | < 4.70 | > 20 |
| Nc1nc(=O)n([C@@H]2CS[C@H](CO)O2)cc1F [EMTRICITABINE] | < 4.70 | > 20 |
| C[C@H](N[C@@H](CCc1ccccc1)C(=O)O)C(=O)N1CCC[C@H]1C(=O)O [ENALAPRILAT ANHYDROUS] | < 4.70 | > 20 |
| CC(C)(O)CNc1nc(Nc2ccnc(C(F)(F)F)c2)nc(-c2cccc(C(F)(F)F)n2)n1 [ENASIDENIB] | < 4.70 | > 20 |
| COc1ccc(C(=O)Nc2ccccc2CCC2CCCCN2C)cc1 (configuration not stated) [ENCAINIDE] | < 4.70 | > 20 |
| COc1ccccc1N1CCN(CC(O)COc2cc(OC)c(OC)c(OC)c2)CC1 (configuration not stated) [ENCIPRAZINE] | < 4.70 | > 20 |
| CCOC(=O)N(Cc1ccccc1)C1CC1 [ENCYPRATE] | < 4.70 | > 20 |
| O=C(O)c1ccccc1NCCc1ccccc1 [ENFENAMIC ACID] | < 4.70 | > 20 |
| C=CCOC(Cn1ccnc1)c1ccc(Cl)cc1Cl (configuration not stated) [ENILCONAZOLE] | < 4.70 | > 20 |
| Cc1cc(Nc2cc(N3CCN(C)CC3)nc(/C=C/c3ccccc3)n2)n[nH]1 [ENMD-2076] | < 4.70 | > 20 |
| O=C(Nc1ccc(Cl)c(Cl)c1)C1=C(O)c2cc(Cl)ccc2S(=O)(=O)CC1 [ENOLICAM] | < 4.70 | > 20 |
| CCn1cc(C(=O)O)c(=O)c2cc(F)c(N3CCNCC3)nc21 [ENOXACIN] | < 4.70 | > 20 |
| CSc1ccc(C(=O)c2[nH]c(=O)[nH]c2C)cc1 [ENOXIMONE] | < 4.70 | > 20 |
| CCN1CCN(c2cc3c(cc2F)c(=O)c(C(=O)O)cn3C2CC2)CC1 [ENROFLOXACIN] | < 4.70 | > 20 |
| O=S(=O)(O)c1ccc2[nH]c(-c3ccccc3)nc2c1 [ENSULIZOLE] | < 4.70 | > 20 |
| CCN(CC)C(=O)/C(C#N)=C/c1cc(O)c(O)c([N+](=O)[O-])c1 [ENTACAPONE] | < 4.70 | > 20 |
| Nc1ccccc1NC(=O)c1ccc(CNC(=O)OCc2cccnc2)cc1 [ENTINOSTAT] | < 4.70 | > 20 |
| c1cn2cc(-c3ccc4cn[nH]c4c3)nc(Nc3ccc(N4CCOCC4)cc3)c2n1 [ENTOSPLETINIB] | < 4.70 | > 20 |
| CNC(=O)c1ccc(N2C(=S)N(c3ccc(C#N)c(C(F)(F)F)c3)C(=O)C2(C)C)cc1F [ENZALUTAMIDE] | < 4.70 | > 20 |
| Cn1cc(C2=C(c3cn(C4CCN(Cc5ccccn5)CC4)c4ccccc34)C(=O)NC2=O)c2ccccc21 [ENZASTAURIN] | < 4.70 | > 20 |
| NS(=O)(=O)NCCNc1nonc1/C(=N/O)Nc1ccc(F)c(Br)c1 [EPACADOSTAT] | < 4.70 | > 20 |
| CCc1ccc(C(=O)C(C)CN2CCCCC2)cc1 (configuration not stated) [EPERISONE] | < 4.70 | > 20 |
| CN[C@@H](C)[C@H](O)c1ccccc1 [EPHEDRINE] | < 4.70 | > 20 |
| NC1=NCC2c3ccccc3Cc3ccccc3N12 (configuration not stated) [EPINASTINE] | < 4.70 | > 20 |
